Data published in patent publication US10294202B2, “Pyrrolidinones as herbicides” (FMC Corporation, priority 2013, dated 2019).

Key:
foxtail, green = test: Test D pre-/postemergence herbicide test; assay type: in vivo, Setaria viridis; conditions: for Plant response rating: Foxtail, Green, scale 0 to 100; for Plant response rating, Foxtail, Green: scale 0 to 100 (0 no effect, 100 complete control)
From the text: (§1) Seeds of plant species selected from bluegrass (annual bluegrass, Poa annua), blackgrass (Alopecurus myosuroides), canarygrass (littleseed canarygrass, Phalaris minor), chickweed (common chickweed, Stellaria media), galium (catchweed bedstraw, Galium aparine), bromegrass, downy (downy bromegrass, Bromus tectorum), field poppy (Papaver rhoeas), field violet (Viola arvensis), foxtail, green (green foxtail, Setaria viridis), deadnettle (henbit deadnettle, Lamium amplexicaule), ryegrass, Italian (Italian ryegrass, Lolium multiflorum), kochia (Kochia scoparia), lambsquarters (Chenopodium album), oilseed rape (Brassica napus), pigweed (Amaranthus retroflexus), chamomile (scentless chamomile, Matricaria inodora), Russian thistle (Salsola kali), speedwell (bird's-eye speedwell, Veronica persica), barley, spring (spring barley, Hordeum vulgare), wheat, spring (spring wheat, Triticum aestivum), buckwheat, wild (wild buckwheat, Polygonum convolvulus), mustard, wild (wild mustard, Sinapis arvensis), oat, wild (wild oat, Avena fatua), radish, wild (wild radish, Raphanus raphanistrum), […]), barley, winter (winter barley, Hordeum vulgare), and wheat, winter (winter wheat, Triticum aestivum) were planted into a silt loam soil and treated preemergence with test chemicals formulated in a non-phytotoxic solvent mixture which included a surfactant. At the same time, these species were planted in pots containing Redi-Earth® planting medium (Scotts Company, 14111 Scottslawn Road, Marysville, Ohio 43041) comprising spaghnum peat moss, vermiculite, wetting agent and starter nutrients and treated with postemergence applications of the test chemicals formulated in the same manner. Plants ranged in height from 2 to 18 cm (1- to 4-leaf stage). Treated plants and controls were maintained in a controlled growth environment for 7 to 21 days after which time all species were compared to controls and visually evaluated. Plant response ratings, summarized in Table D, are based on a scale of 0 to 100 where 0 is no effect and 100 is complete control. A dash (-) response means no test result.

deadnettle = test: Test D pre-/postemergence herbicide test; assay type: in vivo, Lamium amplexicaule; conditions: for Plant response rating: Deadnettle, scale 0 to 100; for Plant response rating, Deadnettle: scale 0 to 100 (0 no effect, 100 complete control)
From the text: as §1

oilseed rape = test: Test D pre-/postemergence herbicide test; assay type: in vivo, Brassica napus; conditions: for Plant response rating: Postemergence, Oilseed Rape, scale 0 to 100; for Plant response rating, Oilseed Rape: Preemergence, scale 0 to 100 (0 no effect, 100 complete control)
From the text: as §1

radish, wild = test: Test D pre-/postemergence herbicide test; assay type: in vivo, Raphanus raphanistrum; conditions: for Plant response rating: Postemergence, Radish, Wild, scale 0 to 100; for Plant response rating, Radish, Wild: Preemergence, scale 0 to 100 (0 no effect, 100 complete control)
From the text: as §1

lambsquarters = test: Test E preemergence herbicide test; assay type: in vivo, Chenopodium album; parameters: key: 0 = no effect, 100 = complete control
From the text: Seeds of plant species selected from corn (Zea mays), soybean (Glycine max), velvetleaf (Abutilon theophrasti), lambsquarters (Chenopodium album), wild poinsettia (Euphorbia heterophylla), pigweed, palmer (palmer pigweed, Amaranthus palmeri), waterhemp (common waterhemp, Amaranthus rudis), surinam grass (Brachiaria decumbens), crabgrass, large (large crabgrass, Digitaria sanguinalis), crabgrass, Brazil (Brazilian crabgrass, Digitaria horizontalis), panicum, fall (fall panicum, Panicum dichotomiflorum), foxtail, giant (giant foxtail, Setaria faberii), foxtail, green (green foxtail, Setaria viridis), goosegrass (Eleusine indica), johnsongrass (Sorghum halepense), ragweed (common ragweed, Ambrosia elatior), barnyardgrass (Echinochloa crus-galli), sandbur (southern sandbur, Cenchrus echinatus), arrowleaf […] rhombifolia), ryegrass, Italian (Italian ryegrass, Lolium multiflorum), dayflower, VA (Virginia dayflower, Commelina virginica), field bindweed (Convolvulus arvensis), morningglory (Ipomoea coccinea), nightshade (eastern black nightshade, Solanum ptycanthum), kochia (Kochia scoparia), nutsedge, yellow (yellow nutsedge, Cyperus esculentus), cocklebur (common cocklebur, Xanthium strumarium), smartweed (ladysthumb smartweed, Polygonum Persicaria) and beggarticks (hairy beggarticks, Bidens pilosa), were planted into a silt loam soil and treated preemergence with test chemicals formulated in a non-phytotoxic solvent mixture which included a surfactant. Treated plants and controls were maintained in a greenhouse for 21 days, after which time all species were compared to controls and visually evaluated. Plant response ratings, summarized in Table E, are based on a scale of 0 to 100 where 0 is no effect and 100 is complete control. A dash (-) response means no test result.

O=C1NCC(c2ccc(F)c(F)c2)C1C(=O)Nc1ccccc1C(F)(F)F (racemic) [Compound 6] was tested, and the Plant response rating (foxtail, green; Postemergence, 16 g ai/ha) was 0, the Plant response rating (foxtail, green; Postemergence, 31 g ai/ha) was 0 and the Plant response rating (foxtail, green; Postemergence, 62 g ai/ha) was 0. The Plant response rating (foxtail, green; Postemergence, 125 g ai/ha) was 0, the Plant response rating (foxtail, green; Postemergence, 250 g ai/ha) was 20 and the “Plant response rating, Foxtail, Green” value (foxtail, green; Preemergence, 62 g ai/ha) was 0. The “Plant response rating, Foxtail, Green” value (foxtail, green; Preemergence, 16 g ai/ha) was 0, the “Plant response rating, Foxtail, Green” value (foxtail, green; Preemergence, 31 g ai/ha) was 0 and the Plant response rating (foxtail, green; Preemergence, 125 g ai/ha) was 0. For the same compound, the Plant response rating (foxtail, green; Preemergence, 250 g ai/ha) was 10, the Plant response rating (deadnettle; Postemergence, 16 g ai/ha) was 0 and the Plant response rating (deadnettle; Postemergence, 31 g ai/ha) was 0. It also gave a Plant response rating (deadnettle; Postemergence, 62 g ai/ha) of 0, a Plant response rating (deadnettle; Postemergence, 125 g ai/ha) of 10 and a Plant response rating (deadnettle; Postemergence, 250 g ai/ha) of 10. For the same compound, the “Plant response rating, Deadnettle” value (deadnettle; Preemergence, 62 g ai/ha) was 0, the “Plant response rating, Deadnettle” value (deadnettle; Preemergence, 16 g ai/ha) was 0 and the “Plant response rating, Deadnettle” value (deadnettle; Preemergence, 31 g ai/ha) was 0. For the same compound, the Plant response rating (deadnettle; Preemergence, 125 g ai/ha) was 40, the Plant response rating (deadnettle; Preemergence, 250 g ai/ha) was 40 and the Plant response rating (oilseed rape; 16 g ai/ha) was 10. It also gave a Plant response rating (oilseed rape; 31 g ai/ha) of 10, a Plant response rating (oilseed rape; 62 g ai/ha) of 10 and a Plant response rating (oilseed rape; 125 g ai/ha) of 15. For the same compound, the Plant response rating (oilseed rape; 250 g ai/ha) was 20, the “Plant response rating, Oilseed Rape” value (oilseed rape; 62 g ai/ha) was 0 and the “Plant response rating, Oilseed Rape” value (oilseed rape; 125 g ai/ha) was 10. The “Plant response rating, Oilseed Rape” value (oilseed rape; 16 g ai/ha) was 0, the “Plant response rating, Oilseed Rape” value (oilseed rape; 31 g ai/ha) was 0 and the “Plant response rating, Oilseed Rape” value (oilseed rape; 250 g ai/ha) was 20. For the same compound, the Plant response rating (radish, wild; 16 g ai/ha) was 0, the Plant response rating (radish, wild; 31 g ai/ha) was 0 and the Plant response rating (radish, wild; 62 g ai/ha) was 0. For the same compound, the Plant response rating (radish, wild; 125 g ai/ha) was 0, the Plant response rating (radish, wild; 250 g ai/ha) was 10 and the “Plant response rating, Radish, Wild” value (radish, wild; 16 g ai/ha) was 0.
O=C1NCC(c2ccc(Cl)c(Cl)c2)C1C(=O)Nc1ccccc1F (racemic) [Compound 14] was tested, and the “Plant response rating, Lambsquarters” value (lambsquarters; 16 g ai/ha) was 0, the “Plant response rating, Lambsquarters” value (lambsquarters; 31 g ai/ha) was 0 and the “Plant response rating, Lambsquarters” value (lambsquarters; 62 g ai/ha) was 0. For the same compound, the “Plant response rating, Lambsquarters” value (lambsquarters; 125 g ai/ha) was 50 and the “Plant response rating, Lambsquarters” value (lambsquarters; 250 g ai/ha) was 70.
O=C1NCC(c2ccc(F)c(C(F)(F)F)c2)C1C(=O)Nc1cccc(F)c1F (racemic) [Compound 77] was tested, and the “Plant response rating, Foxtail, Green” value (foxtail, green; Preemergence, 62 g ai/ha) was 80, the “Plant response rating, Foxtail, Green” value (foxtail, green; Preemergence, 31 g ai/ha) was 15 and the Plant response rating (foxtail, green; Preemergence, 125 g ai/ha) was 70. For the same compound, the Plant response rating (foxtail, green; Preemergence, 250 g ai/ha) was 85, the “Plant response rating, Deadnettle” value (deadnettle; Preemergence, 62 g ai/ha) was 65 and the “Plant response rating, Deadnettle” value (deadnettle; Preemergence, 31 g ai/ha) was 15. The Plant response rating (deadnettle; Preemergence, 125 g ai/ha) was 60, the Plant response rating (deadnettle; Preemergence, 250 g ai/ha) was 75 and the “Plant response rating, Oilseed Rape” value (oilseed rape; 62 g ai/ha) was 5. For the same compound, the “Plant response rating, Oilseed Rape” value (oilseed rape; 125 g ai/ha) was 5, the “Plant response rating, Oilseed Rape” value (oilseed rape; 31 g ai/ha) was 5 and the “Plant response rating, Oilseed Rape” value (oilseed rape; 250 g ai/ha) was 5. The “Plant response rating, Radish, Wild” value (radish, wild; 62 g ai/ha) was 10, the “Plant response rating, Radish, Wild” value (radish, wild; 125 g ai/ha) was 25 and the “Plant response rating, Radish, Wild” value (radish, wild; 31 g ai/ha) was 0. For the same compound, the “Plant response rating, Radish, Wild” value (radish, wild; 250 g ai/ha) was 30.
